In brackets after ≈: the same amount, converted by molar mass. Read-outs that look alike come from different tables or passages of the source.
Key:
Kinetic solubility = type: physicochemical
HeLa MKYP cells [1] = assay: Cell death measured by DAPI staining, with 1 μM FCCP/oligomycin or no toxin (no FO); type: cell-based; details: for Max cell death at 25 μM compound, 1 uM FO (%) / Cell death at 25 μM (no FO) (%): 25 μM compound
Outline: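 HeLa MKYP cells were treated with compounds alongside 1 μM FCCP/oligomycin or no toxin for 6 or 6.5 h. Cell death was scored by DAPI staining, with H2O2 treatment as the death control.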

HeLa MKYP cells [2] = assay: Human mitophagy assay (HeLa mKeima assay, FACS); type: cell-based
Outline: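 HeLa cells carrying the pH-sensitive mtKeima tag incubated 16 h with compound at several concentrations, then 1 uM FCCP/oligomycin for 6 h. FACS detects mitochondria in lysosomes through the Keima emission shift, quantified as percentage of cells in mitophagy.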

[3] = Mitotoxicity / Mitotox safety margin (therapeutic window); type: cell-based
pS129 α-syn = assay: Preformed fibril (PFF) model in primary neuron culture, pS129 α-syn; type: cell-based; details: increasing doses
Protocol: 4. Preformed Fibril Model
Mouse and human alpha-synuclein monomers have been sourced commercially, then pre-formed fibrils have been generated as per the detailed protocol provided by the MJFF. For in vitro experiments primary hippocampal neurons isolated from P0 pups were grown for 7 days after which PFFs at 5 ug/ml were introduced Pre-formed fibrils will be introduced via stereotactic injection into the striatum of wt (C57BL/6J, Jax #000664) and transgenic A53T mice (B6;C3-Tg(Prnp-SNCA*A53T)83Vle/J, Jax #004479). Cohorts of drug-treated (oral gavage) and untreated animals will then be allowed to age for up to 6 months, at which point they will be sacrificed and perfused. Brains will be removed and fixed, then sectioned for analysis. We anticipate that untreated A53T animals will show significant spreading of aggregated alpha-synuclein pathology and pS129 staining, as well as some possible neurodegeneration; wt animals are also expected to show pS129 synuclein staining and synuclein aggregation, albeit less than that seen in the A53T background.

[4] = Inspection of crystallization and round cells; type: physicochemical; design: key: 1=yes crystals; 0=no crystals
Protocol: 5. Inspection of Crystallization and Round Cells
Briefly, the Hela MKYP (Mito-Keima/YFP-Parkin) cells were seeded at 10K cells/well. EP/MTK compounds were added at seeding (cells were still in suspension). The cells were incubated with the EP/MTK compounds for 16 hours, then 1 μM FCCP/oligomycin was added for 6 hours. Prior to harvesting, cells were scored by eye under 20× magnification for the presence or absence of crystalline or aggregated compound, or round cells.

[5] = Homo sapiens, HeLa, HeLa mKeima assay, read-out: Mitophagy EC50 (HeLa mKeima assay)
[6] = Homo sapiens, HeLa, read-out: Mitophagy induction EC50

| Structure (SMILES) | solubility kinetic (Kinetic solubility) | Max cell death at 25 μM compound, 1 uM FO (%) (HeLa MKYP cells [1]) | Cell death at 25 μM (no FO) (%) (HeLa MKYP cells [1]) | Highest safe dose (cytotoxicity; no FO; safe means DAPI+ <20%) (HeLa MKYP cells [1]) | Max % death with 1 μM FO (HeLa MKYP cells [1]) | EC50 (HeLa MKYP cells [2]; [5]) | EC50 (HeLa MKYP cells [2]; [6]) | Mitophagy EC50 (HeLa mKeima assay) (μM) (HeLa MKYP cells [2]; HeLa mKeima assay) | Mito-Safety Index (highest safe dose/EC50) [3] | Highest safe dose (μM) (mitotox or cytotox) [3] | pS129 α-syn (250-12) in primary neuron culture (pS129 α-syn) | pS129 α-syn (monomer) in primary neuron culture (pS129 α-syn) | pS129 α-syn in primary neuron culture (pS129 α-syn) | EC50 (HeLa MKYP cells [2]; read-out: Mitophagy induction EC50) | visual inspection of crystallization ([4]; 0.1 μM compound) | visual inspection of crystallization ([4]; 0.3 μM compound) | visual inspection of crystallization ([4]; 0.9 μM compound) | visual inspection of crystallization ([4]; 2.8 μM compound) | visual inspection of crystallization ([4]; 8.3 μM compound) | visual inspection of crystallization ([4]; 25.0 μM compound, HeLa MKYP culture, 20× magnification) |
| --- | --- | --- | --- | --- | --- | --- | --- | --- | --- | --- | --- | --- | --- | --- | --- | --- | --- | --- | --- | --- |
| FC(F)(F)c1cc2c(N[C@H]3c4ccccc4CC[C@@H]3N3CC4(COC4)C3)ncnc2[nH]1 [EP-0038249] | 157 µM (≈ 67.4 µg/mL) | 37.3% | 3.69% | 25.0 µM | 37.3% | 2.73 µM | > 25 µM | – | – | – | – | – | – | – | – | – | – | – | – | – |
| COC1CCN([C@H]2CCc3ccccc3[C@@H]2Nc2ncnc3[nH]c(C(F)(F)F)cc23)CC1 [EP-0038282] | 134 µM (≈ 59.7 µg/mL) | 97.5% | 66.6% | 2.8 µM | 97.5% | – | > 25 µM | Minimal | – | – | – | – | – | – | – | – | – | – | – | – |
| FC(F)(F)c1cc2c(N[C@H]3c4ccccc4CC[C@@H]3N3C4CCC3COC4)ncnc2[nH]1 [EP-0038283] | 1 µM (≈ 0.443 µg/mL) | 98% | 9.6% | 8.3 µM | 98.0% | – | > 25 µM | Minimal | – | – | – | – | – | – | – | – | – | – | – | – |
| CN(CC1CCOCC1)[C@H]1CCc2ccccc2[C@@H]1Nc1ncnc2[nH]c(C(F)(F)F)cc12 [EP-0038394] | 7.05 µM (≈ 3.24 µg/mL) | 61% | 11.4% | 8.3 µM | 61.0% | 8.26 µM | > 25 µM | – | – | – | – | – | – | – | – | – | – | – | – | – |
| c1ccc2c(c1)CC[C@H](N1CCOCC1)[C@H]2Nc1ncnc2[nH]cnc12 [EP-0039678] | 164 µM (≈ 57.5 µg/mL) | 2.27% | 1.77% | – | – | – | – | Minimal | – | – | – | – | – | – | – | – | – | – | – | – |
| COC1CN([C@@H]2COc3ccccc3[C@H]2Nc2ncnc3[nH]c(C(F)(F)F)cc23)C1 [EP-0040850] | – | – | – | 25.0 µM | 10.3% | – | 0.24 µM | – | 88.53 | 21.4 µM | reduces | reduces | reduces | – | – | – | – | – | – | – |
| COC1CN([C@H]2CCc3ccccc3[C@@H]2Nc2ncnc3[nH]c(C(F)(F)F)cc23)C1 [EP-0040857] | – | – | – | 25.0 µM | 17.0% | – | – | – | 116.38 | 18.7 µM | reduces | reduces | reduces | 0.16 µM | – | – | – | – | – | – |
| C[C@@H]1CN([C@@H]2COc3cc(F)ccc3[C@H]2Nc2ncnc3[nH]c(C(F)(F)F)cc23)CCO1 [EP-0041088] | – | – | – | 25.0 µM | 16.2% | – | 0.12 µM | – | 128.93 | 15.7 µM | reduces | reduces | reduces | – | – | – | – | – | – | – |
| CO[C@@H]1CCN([C@H]2COc3ccccc3[C@@H]2Nc2ncnc3[nH]c(C(F)(F)F)cc23)C1 [EP-0041161] | – | – | – | 25.0 µM | 8.5% | – | 0.05 µM | – | 75.49 | 3.4 µM | reduces | reduces | reduces | – | – | – | – | – | – | – |
| c1coc(CNc2ncnc3[nH]cnc23)c1 [Kinetin, kinetin, reference compound] | – | – | – | – | – | – | – | – | – | – | – | – | – | – | 0 | 0 | 0 | 0 | 0 | 0 |
